Measurements from publication PMC11568248, “Targeting Candida albicans O-acetyl-L-homoserine sulfhydrylase (Met15p) in antifungal treatment” (Scientific Reports, 2024).

T1: CaMet15NHp (Candida albicans, UniProt Q59US5)
T1 construct: gene MET15; mostly homotetramer
T1 sequence (Q59US5 2-440): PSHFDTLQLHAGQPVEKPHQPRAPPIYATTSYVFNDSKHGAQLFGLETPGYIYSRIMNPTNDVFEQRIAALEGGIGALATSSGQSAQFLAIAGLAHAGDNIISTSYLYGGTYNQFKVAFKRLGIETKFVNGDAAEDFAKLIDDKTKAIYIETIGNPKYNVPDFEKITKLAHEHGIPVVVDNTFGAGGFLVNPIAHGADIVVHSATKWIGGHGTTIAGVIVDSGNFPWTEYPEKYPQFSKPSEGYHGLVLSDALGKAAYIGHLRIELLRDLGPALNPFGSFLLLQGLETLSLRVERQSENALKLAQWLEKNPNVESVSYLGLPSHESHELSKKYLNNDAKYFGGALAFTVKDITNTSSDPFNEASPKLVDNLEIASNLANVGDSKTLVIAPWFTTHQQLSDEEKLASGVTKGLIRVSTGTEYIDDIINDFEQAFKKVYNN

B1: CaMet15NHp (Candida albicans SC5314) (protein)
chain: T1 sequence (Q59US5 2-440)

Assays:
CaMet15NHp [1] = biological target: T1, CaMet15NHp; test: RP-HPLC-DAD of L-homocysteine derivatized with DTNB; type: biochemical; details: read-out: % inhibition at 10 mM
CaMet15NHp [2] = biological target: T1, CaMet15NHp; test: as above; type: biochemical; details: substrates OAH and Na2S, 0.2 mM PLP, pH 8.0, 37 °C; racemate
S = test: purified protein; details: O-acetyl-L-homoserine co-substrate, 0.2 mM PLP, 50 mM Tris-HCl pH 8.0, 100 mM NaCl, 37 °C, sulfide ion donor
purified protein = substrate: CC(=O)OCC[C@H](N)C(=O)O; test: purified protein; details: Na2S co-substrate, 0.2 mM PLP, 50 mM Tris-HCl pH 8.0, 100 mM NaCl, 37 °C

Row | Molecule | inhibition at 10000 µM (CaMet15NHp [1]) [%] | also measured
1 | N[C@@H](CCNC(=O)c1ccccc1)C(=O)O [BzDAB, 3-benzamido-1-carboxypropan-1-aminium chloride] | ~44 | 
2 | CC(C)(S)[C@H](N)C(=O)O [L-PEN, L-penicillamine] | > 50 | 
3 | CC(=O)NCC[C@H](N)C(=O)O [AcDAB, N[4]-acetyl-(S)−2,4-diaminobutanoic acid] | ~70 | 
4 | CP(=O)(O)CCC(N)C(=O)O (racemic) [DL-GLUF, DL-glufosinate] |  | % inhibition at 10 mM (CaMet15NHp [2]): DL-2-allyglycine (DL-ALG), and DL-glufosinate (DL-GLUF) were slightly inhibitory
5 | CaMet15NHp (Candida albicans SC5314) |  | Km (S): 0.027 ± 0.0021 mM
6 | C=CCC(N)C(=O)O (racemic) [DL-ALG, DL-2-allylglycine] |  | % inhibition at 10 mM (CaMet15NHp [2]): DL-2-allyglycine (DL-ALG), and DL-glufosinate (DL-GLUF) were slightly inhibitory
7 | CSCC[C@H](N)C(=O)O [L-Met, L-methionine] | < 15 | 
8 | B1 |  | Km (purified protein): 9.12 ± 1.77 mM
